# Results from patent publication US20050112573A1, “Method of detecting toxic substance” (priority 2001, published 2005).
# Like-named read-outs stand apart in the source and are kept apart here.
# What was measured:
# Format in all cases: cell-based, Saccharomyces cerevisiae W303
# [1] = tested on: promoter of yeast gene YKL071w
# Description: (§1) The inventors of the present application understood that the induction of certain yeast genes by toxic substances is caused by the activation of the promoters of the genes by the toxic substances. Thus, the inventors prepared a vector that comprised a polynucleotide sequence comprising the promoter of the yeast gene, which sequence is operably linked to a polynucleotide encoding a marker protein; and transformed yeast cells with the vector. […] The working examples hereinafter illustrate the preparation of such vectors, transformation of yeast cells by use of said vectors, and the detection of toxic substances by use of the transformed cells.
# (§2) Promoter assay is a method for determining variations of the level of intracellular genes without destroying cells on the basis of the level of expressed marker genes instead of the expressed mRNA. The gene selected to detect a chemical substance is expressed in the absence of chemical substances, and thus a marker protein also occurs in the absence of chemical substances. In the method according to the present invention, the behavior of yeast genes on the addition of test materials is determined on the basis of the level of expressed marker protein so that the presence or the absence, and the kind of toxic chemical substances are predicted. Thus, it is desired that the production of marker proteins is lower in the absence of chemical substances, and the production of marker proteins is higher in the presence of chemical substances.
# (§3) Type YEp shuttle vector pYES2 (pYES2, Cat no: V825-20, Invirtogen Corporation, USA), which can be replicated both in E. coli. and yeast was used as vector (R. W. Old, S. B. Primrose Principles of Gene Manipulation 5th Ed., BAIFUKAN CO., LTD, pp138-165, pp.234-263, 2000). The portion of vector pQBI 63 (Cat no.54-0082, Wako Pure Chemical Industries, Ltd.) corresponding to a marker protein GFP was used as the polynucleotide encoding GFP (SEQ ID No: 6). First, the GFP polynucleotide was inserted into the multiple cloning sites of pYES2 to give a vector. Thereafter, the GAL1 promoter of pYES2 was replaced with the polynucleotide comprising the promoter sequence of the intended yeast gene YKL071w (SEQ ID No: 1) to give an intended plasmid vector. Suitable restriction enzymes were selected, and the insertion of the polynucleotide comprising GFP and the promoter sequence was conducted.
# (§4) Next, the yeast Saccharomyces cerevisiae W303 was transformed with the resultant plasmid vector according to the following procedures: • 1) Incubating the yeast Saccharomyces cerevisiae W303 in 200 ml of SD medium under shaking until OD 660 reaches 0.5; • 2) Suspending the collected cells in 5 ml of TE-buffer; • 3) Adding 250 μL of 2.5M lithium acetate; • 4) Dispending each 300 μl, adding 10 μl of above plasmid vector thereto, then incubating the suspensions at 30° C. for 30 minutes; • 5) Adding 700 μl of 50% PEG4000, and incubating the mixture under shaking at 30° C. for 60 minutes; • 6) Giving heat shock (42° C., 5 minutes), and then immediately cooling the mixture; • 7) Washing the mixture twice with 1M sorbitol; and • 8) Seeding it on agar plates made of minimum essential medium.
# (§5) The cells of SC-YKL071W-pQBI as prepared in Example 2 were contacted to one of the following compounds. The yeast cells SC-YKL071W-pQBI were incubated at 25° C. in SD medium (Yeast nitrogen base without amino acids (Difco 0919-15)+glucose+amino acids (adenine, histidine, tryptophan)). One of toxic chemical substances as shown below was added to the cells at logarithmic growth phase, and then the cells were further incubated for two hours.
# [2] = tested on: promoter of yeast gene YOR382w
# Description: as §1, §2
# as §3, with “YOR382w” for “YKL071w”, “3)” for “1)”
# as §4
# as §5, with “of SC-YOR382W-pQBI” for “of SC-YKL071W-pQBI”, “Example 4” for “Example 2”, “cells SC-YOR382W-pQBI” for “cells SC-YKL071W-pQBI”
# [3] = tested on: promoter of yeast gene YLR303w; conditions: for expression of GFP: SC-YCR303W-pQBI cells (so in the source), summary of Table 14
# Description: as §1, §2
# as §3, with “YLR303w” for “YKL071w”, “5)” for “1)”
# as §4
# as §5, with “of SC-YCR303W-pQBI” for “of SC-YKL071W-pQBI”, “Example 6” for “Example 2”, “cells SC-YCR303W-pQBI” for “cells SC-YKL071W-pQBI”
# [4] = SC-YKL071W-pQBI cells, 25° C., two hours, each substance at the concentration given
# [5] = cells SC-YOR382W-pQBI, 2 hours incubation with the substance at the concentration printed in its row (column Concentrations), GFP fluorescence vs control without chemical
# [6] = cells SC-YCR303W-pQBI (so in the source), 2 hours incubation with the substance at the concentration printed in its row (column Concentrations), GFP fluorescence vs control without chemical
# [7] = SC-YOR382W-pQBI cells, summary of Table 12
Compound,"Fluorescens [1, 4]","Fluorescence [2, 5]","Fluorescence [3, 6]",other results
CCCCC(CC)COC(=O)c1ccccc1C(=O)OCC(CC)CCCC (centres unmarked),− (the number of the cells having a higher fluorescence than the control was under 1%),− (the number of the cells having a higher fluorescence than the control was under 1%),− (the number of the cells having a higher fluorescence than the control was under 1%),–
"O=[N+]([O-])c1cc[n+]([O-])c2ccccc12 [(5), 4-nitroquinolin-N-oxide]",–,–,–,"expression of GFP [2, 7]: induced the expression of GFP"
"Oc1cc(Cl)c(Cl)cc1Cl [(6), 2,4,5-trichlorophenol]",–,–,–,expression of GFP [2]: induced the expression of GFP
"CN(C)C(=S)SSC(=S)N(C)C [(10), Tetramethylthiuram disulfide]",–,–,–,"expression of GFP ([1]; SC-YKL071W-pQBI cells, summary of Table 10): induced the expression of GFP"
"C[S+](C)[O-] [(15), dimethylsulfoxide]",–,–,–,"expression of GFP [2, 7]: induced the expression of GFP"
"CCN(CC)C(=O)SCc1ccc(Cl)cc1 [S-4-Chlorobenzyl-N,N-diethylthiocarbamate]",− (the number of the cells having a higher fluorescence than the control was under 1%),− (the number of the cells having a higher fluorescence than the control was under 1%),− (the number of the cells having a higher fluorescence than the control was under 1%),–
CC(=O)O.Cc1nc(N)cc2[nH]c3ccccc3c12 [Trp-P-2 (acetate)],–,–,–,Fluorescens [1]: − (key: −: the number of the cells having a higher fluorescence than the control was under 1%; +: between 1% and 2%; ++: 2% or more); Fluorescence [2]: ++ (key: −: the number of the cells having a higher fluorescence than the control was under 1%; +: between 1% and 2%; ++: 2% or more); expression of GFP [2]: induced the expression of GFP; Fluorescence [3]: − (key: −: the number of the cells having a higher fluorescence than the control was under 1%; +: between 1% and 2%; ++: 2% or more)
O=S(=O)([O-])[O-].[Cu+2] [copper sulfate (II)],–,–,–,Fluorescens [1]: − (key: −: the number of the cells having a higher fluorescence than the control was under 1%; +: between 1% and 2%; ++: 2% or more); Fluorescence [2]: − (key: −: the number of the cells having a higher fluorescence than the control was under 1%; +: between 1% and 2%; ++: 2% or more); Fluorescence [3]: − (key: −: the number of the cells having a higher fluorescence than the control was under 1%; +: between 1% and 2%; ++: 2% or more)
CCOC(=O)CC(SP(=S)(OC)OC)C(=O)OCC (centres unmarked) [malathon],− (the number of the cells having a higher fluorescence than the control was under 1%),++ (2% or more),− (the number of the cells having a higher fluorescence than the control was under 1%),"expression of GFP [2, 7]: induced the expression of GFP"
[CH3][Hg][Cl] [methylmercury chloride],− (the number of the cells having a higher fluorescence than the control was under 1%),− (the number of the cells having a higher fluorescence than the control was under 1%),− (the number of the cells having a higher fluorescence than the control was under 1%),–
[Cl][Ni][Cl] [nickel (II) chloride],–,–,–,Fluorescens [1]: − (key: −: the number of the cells having a higher fluorescence than the control was under 1%; +: between 1% and 2%; ++: 2% or more); Fluorescence [2]: ++ (key: −: the number of the cells having a higher fluorescence than the control was under 1%; +: between 1% and 2%; ++: 2% or more); expression of GFP [2]: induced the expression of GFP; Fluorescence [3]: − (key: −: the number of the cells having a higher fluorescence than the control was under 1%; +: between 1% and 2%; ++: 2% or more)
[K+].[K+].[O]=[Cr](=[O])([O-])[O][Cr](=[O])(=[O])[O-] [potassium bichromate],− (the number of the cells having a higher fluorescence than the control was under 1%),++ (2% or more),− (the number of the cells having a higher fluorescence than the control was under 1%),"expression of GFP [2, 7]: induced the expression of GFP"
[Cl][Sn]([c]1ccccc1)([c]1ccccc1)[c]1ccccc1 [triphenyltin chloride],− (the number of the cells having a higher fluorescence than the control was under 1%),− (the number of the cells having a higher fluorescence than the control was under 1%),− (the number of the cells having a higher fluorescence than the control was under 1%),–
CdCl2 [(2)],− (the number of the cells having a higher fluorescence than the control was under 1%),− (the number of the cells having a higher fluorescence than the control was under 1%),++ (2% or more),expression of GFP [3]: induced the expression of GFP
HgCl2 [(3)],− (the number of the cells having a higher fluorescence than the control was under 1%),− (the number of the cells having a higher fluorescence than the control was under 1%),++ (2% or more),expression of GFP [3]: induced the expression of GFP
Na2As [(1)],− (the number of the cells having a higher fluorescence than the control was under 1%),− (the number of the cells having a higher fluorescence than the control was under 1%),++ (2% or more),expression of GFP [3]: induced the expression of GFP
